Data published in patent publication US9351955B2, “Compounds and pharmaceutical compositions thereof for the treatment of cystic fibrosis” (Galapagos NV, priority 2013, dated 2016).

Test: Lung distribution study
Assay type: in vivo, Sprague-Dawley rats
Conditions: male, Sprague-Dawley, rat, plasma, oral, 10 mg/kg, exposure values
Method: Sprague-Dawley rats (male, 5-6 weeks old) are obtained from Janvier (France). Rats are acclimatized for at least 5 days before treatment and are kept on a 12 h light/dark cycle. Temperature is maintained at approximately 22° C., and food and water are provided ad libitum. Two days before administration of the test compounds, rats may undergo surgery to place a catheter in the jugular vein under isoflurane anesthesia. After the surgery, rats are housed individually. Rats are deprived of food for at least 16 h before oral dosing and 6 h after. Water is provided ad libitum.
8.7.3. Lung Distribution Studies
Compounds are formulated in 0.5% methylcellulose and EtOH/PEG 200/Methylcellulose 0.5% (10/25/65 v/v/v) by the oral route. Test compounds are orally dosed as a single esophageal gavage at 10 mg/kg under a dosing volume of 5 mL/kg. Each group consists of 12 rats. At each time point, typically 1, 3, 6 and 24 h, animals are euthanized and blood and lung samples are collected. Whole blood samples are centrifuged at 1500 g for 10 min and the resulting plasma samples, along with the lung samples, are stored at −20° C. pending analysis.
8.7.4. Quantification of Compound Levels in Plasma and Lung Samples
Lung samples are milled in the presence of ceramic beads and proteins present in plasma and lung samples are precipitated with an organic solvent. Concentrations of each test compound are determined by an LC-MS/MS method in which the mass spectrometer is operated in positive or negative electrospray mode.
For each animal, the lung-to-plasma ratio is determined as the ratio between compound concentration in lung and in plasma. At each sampling time point, mean, standard error of the mean (sem) and coefficient of variation (CV %) are calculated using data from three animals.

AUC(0-t): 38900 ng·h/mL
Compound: CC1(C)Cc2c(sc(NC(=O)C3(CO)CC3)c2C(N)=O)C(C)(C)O1 [Compound 9, 2-(1-(hydroxymethyl)cyclopropanecarboxamido)-5,5,7,7-tetramethyl-5,7-dihydro-4H-thieno[2,3-c]pyran-3-carboxamide]
